# In US20240409536A1, “COMPOUNDS AND METHODS FOR MODULATING SPLICING” (REMIX THERAPEUTICS INC., priority 2021, published 2024):
# Columns and labels:
# HTT mRNA = experiment: Gene panel canonical junction qPCR assay, HTT CJ mRNA decrease; assay type: cell-based, human; conditions: Homo sapiens, canonical junction qPCR, read-out: HTT IC50 (decrease in CJ mRNA levels)
# In short: (§1)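 A673 or K562 cells treated with compound; canonical exon-exon junction mRNA quantified by cDNA synthesis and RT-qPCR with junction-spanning primer/probe, normalized to GAPDH, GUSB or PPIA and DMSO (2^(−ΔΔCt)). Percent response from set ΔCt assay windows fitted to 4-parameter logistic; IC50 for CJ decrease.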
# Target C mRNA = experiment: Gene panel canonical junction qPCR assay, Target C CJ mRNA decrease; assay type: cell-based; conditions: Homo sapiens, canonical junction qPCR, read-out: Target C IC50 (decrease in CJ mRNA levels)
# In short: as §1
# HiBiT-tagged MYB protein = experiment: HiBiT protein abundance assay, MYB (K562 HiBiT knock-in cells); assay type: cell-based, human; conditions: 24 hours
# In short: (§2)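 Luminescent readout of HiBiT-tagged endogenous protein after lysis, following 24 h compound exposure of knock-in K562 lines at 37 °C. Ten 3-fold concentrations from 10 μM final, DMSO ≤0.25%. Four-parameter logistic fit of normalized response gives concentration halving abundance (IC50).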
# HiBiT-tagged HTT protein = experiment: HiBiT protein abundance assay, HTT (K562 HiBiT knock-in cells); assay type: cell-based, human; conditions: 24 hours
# In short: as §2
Compound,IC50 (HTT mRNA) [nM],IC50 (Target C mRNA) [nM],IC50 (HiBiT-tagged MYB protein) [nM],IC50 (HiBiT-tagged HTT protein) [nM]
"CCNC1CCN(c2ccc(C(=O)Nc3cc(F)c4nc(C)cn4c3)c3nc(OCCOC)ccc23)CC1 [Compound 233, 5-[4-(ethylamino)piperidin-1-yl]-N-{8-fluoro-2-methylimidazo[1,2-a]pyridin-6-yl}-2-(2-methoxyethoxy)quinoline-8-carboxamide]",1000 to 10000,1000 to 10000,< 100,1000 to 10000
"COCCOc1ccc2c(N3C[C@@H](C)N[C@@H](C)C3)ccc(C(=O)Nc3cc(F)c4nc(C)cn4c3)c2n1 [Compound 232, 5-[(3R,5S)-3,5-dimethylpiperazin-1-yl]-N-{8-fluoro-2-methylimidazo[1,2-a]pyridin-6-yl}-2-(2-methoxyethoxy)quinoline-8-carboxamide]",1000 to 10000,1000 to 10000,< 100,1000 to 10000
"CCNC1CCN(c2ccc(C(=O)Nc3cc(F)c4nc(C)cn4c3)c3nc(C)ccc23)CC1 [Compound 228, 5-[4-(ethylamino)piperidin-1-yl]-N-{8-fluoro-2-methylimidazo[1,2-a]pyridin-6-yl}-2-methylquinoline-8-carboxamide]",100 to 1000,100 to 1000,< 100,100 to 1000
"CNC1CCN(c2ccc(C(=O)Nc3cc(F)c4nc(C)cn4c3)c3ncc(OC)nc23)C1 (stereo in doubt) [Compound 227, (R)—N-(8-fluoro-2-methylimidazo[1,2-a]pyridin-6-yl)-2-methoxy-8-(3-(methylamino)pyrrolidin-1-yl)quinoxaline-5-carboxamide 2,2,2-trifluoroacetate]",> 10000,> 10000,100 to 1000,1000 to 10000
"COCCOc1ccc2c(N3CCC(N(C)C)CC3)ccc(C(=O)Nc3cc(F)c4nc(C)cn4c3)c2n1 [Compound 229, 5-[4-(dimethylamino)piperidin-1-yl]-N-{8-fluoro-2-methylimidazo[1,2-a]pyridin-6-yl}-2-(2-methoxyethoxy)quinoline-8-carboxamide]",> 10000,> 10000,< 100,> 10000

# Next, values leading:
IC50 (HTT mRNA) [nM],IC50 (Target C mRNA) [nM],IC50 (HiBiT-tagged MYB protein) [nM],IC50 (HiBiT-tagged HTT protein) [nM],Compound
–,100 to 1000,< 100,100 to 1000,"Cc1cnc2c(C(=O)Nc3cc(F)c4nc(C)cn4c3)ccc(N3C[C@@H](C)N[C@@H](C)C3)c2n1 [Compound 217, 8-((3R,5S)-3,5-dimethylpiperazin-1-yl)-N-{8-fluoro-2-methylimidazo[1,2-a]pyridin-6-yl}-2-methylquinoxaline-5-carboxamide]"
1000 to 10000,> 10000,> 10000,> 10000,"Cc1cn2cc(NCc3ccc(N4CCNCC4)c4ccnnc34)cc(F)c2n1 [Compound 230, 8-fluoro-2-methyl-N-{[5-(piperazin-1-yl)cinnolin-8-yl]methyl}imidazo[1,2-a]pyridin-6-amine]"
1000 to 10000,–,1000 to 10000,1000 to 10000,Cc1cn2cc(NC(=O)c3ccc(N4CCC(NC(C)(C)C)C4)c4ccnnc34)cc(F)c2n1 (stereo not shown) [Compound 109]
1000 to 10000,> 10000,< 100,1000 to 10000,"CNC1CCN(c2ccc(C(=O)Nc3cc(F)c4nc(C)cn4c3)c3nnccc23)C1 (stereo not shown) [Compound 231, N-{8-fluoro-2-methylimidazo[1,2-a]pyridin-6-yl}-5-[3-(methylamino)pyrrolidin-1-yl] cinnoline-8-carboxamide]"
